Data from patent US20240270821A1, “GIP/GLP1/GCG TRI-RECEPTOR AGONISTS AND USES THEREOF” (priority 2023, published 2024).
Read-outs that look alike come from different tables or passages of the source. Starred links: 1 amine or outer side, 2 acyl side, 3 side chain; linkers in the order of their positions; H or OH if unused. Non-standard residues stand in square brackets, D forms with d. Residues, ends and D or L forms follow the SMILES beside them. Groups on a side chain read outwards from the residue. No end group written: not given here. *: point of attachment. C20 diacid = O=C(O)CCCCCCCCCCCCCCCCCCC(=O)*; C18 diacid = O=C(O)CCCCCCCCCCCCCCCCC(=O)*; αMePhe(2-F) = C[C@](N)(Cc1ccccc1F)C(=O)O; γGlu = O=C(O)[C@H](CCC(=O)[*:2])N[*:1]; αMe4Pal = C[C@](N)(Cc1ccncc1)C(=O)O; αMeY = C[C@](N)(Cc1ccc(O)cc1)C(=O)O; αMeF = C[C@](N)(Cc1ccccc1)C(=O)O; 3Pal = N[C@@H](Cc1cccnc1)C(=O)O; 4Pal = N[C@@H](Cc1ccncc1)C(=O)O; αMeL = CC(C)C[C@](C)(N)C(=O)O; αMeS = C[C@](N)(CO)C(=O)O; Orn = NCCC[C@H](N)C(=O)O; AEEA = NCCOCCOCC(=O)O; Aib = CC(C)(N)C(=O)O

What was measured:
Type in all cases: cell-based
hGIPR [1] = molecular target: T1, hGIPR (Homo sapiens, UniProt P48546); assay: Functional cAMP activity in the presence of 1% HSA; conditions: read-out: cAMP Rel EC50, hGIPR
T1 sequence (P48546 22-466): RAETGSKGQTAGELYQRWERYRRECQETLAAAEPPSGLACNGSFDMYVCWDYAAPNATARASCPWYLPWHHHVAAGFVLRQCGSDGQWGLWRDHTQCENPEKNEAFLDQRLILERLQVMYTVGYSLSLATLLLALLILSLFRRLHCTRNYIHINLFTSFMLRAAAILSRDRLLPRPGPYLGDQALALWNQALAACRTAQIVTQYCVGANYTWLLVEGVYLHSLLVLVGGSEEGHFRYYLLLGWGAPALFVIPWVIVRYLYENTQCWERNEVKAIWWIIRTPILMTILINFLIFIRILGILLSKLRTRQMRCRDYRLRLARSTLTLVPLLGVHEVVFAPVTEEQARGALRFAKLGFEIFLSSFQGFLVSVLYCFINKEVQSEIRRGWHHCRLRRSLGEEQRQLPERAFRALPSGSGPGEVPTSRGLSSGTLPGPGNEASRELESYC

hGLP-1R [2] = molecular target: T2, hGLP-1R (Homo sapiens, UniProt P43220); assay: Functional cAMP activity in the presence of 1% HSA; conditions: read-out: cAMP Rel EC50, hGLP-1R
human GcgR = human GcgR (Homo sapiens, UniProt P47871); assay: Functional cAMP activity in the presence of 1% HSA; conditions: read-out: cAMP Rel EC50, hGcgR
hGIPR [3] = molecular target: T1, hGIPR; assay: Functional cAMP activation in the presence of 0.1% casein (no HSA); conditions: read-out: Relative cAMP EC50, hGIPR;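 on Relative cAMP EC50, hGIPR: intracellular cAMP rise after 30 min at 37 °C read by HTRF against a standard curve, scaled between buffer alone (0%) and top control ligand concentration (100%), four-parameter fit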;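 on Relative cAMP EC50, hGLP-1R: intracellular cAMP rise after 30 min at 37 °C read by HTRF, normalized between buffer only (0%) and maximal control ligand (100%), four-parameter variable-slope fit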;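 on Relative cAMP EC50, hGcgR: intracellular cAMP rise after 30 min at 37 °C, read by HTRF against a cAMP standard curve, scaled from buffer only (0%) to maximal control ligand response (100%)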
hGLP-1R [4] = molecular target: T2, hGLP-1R; assay: as above; conditions: read-out: Relative cAMP EC50, hGLP-1R
hGcgR = hGcgR (Homo sapiens, UniProt P47871); assay: as above; conditions: read-out: Relative cAMP EC50, hGcgR;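 further: intracellular cAMP rise after 30 min at 37 °C, read by HTRF against a cAMP standard curve, scaled from buffer only (0%) to maximal control ligand response (100%)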
[5] = 0.1% casein, no HSA, geometric mean
[6] = in the presence of 0.1% casein (no HSA), geometric mean
[7] = HEK-293 clonal cell line, in the presence of 1% HSA, geometric mean of relative EC50

hGcgR, sequence (P47871 26-477): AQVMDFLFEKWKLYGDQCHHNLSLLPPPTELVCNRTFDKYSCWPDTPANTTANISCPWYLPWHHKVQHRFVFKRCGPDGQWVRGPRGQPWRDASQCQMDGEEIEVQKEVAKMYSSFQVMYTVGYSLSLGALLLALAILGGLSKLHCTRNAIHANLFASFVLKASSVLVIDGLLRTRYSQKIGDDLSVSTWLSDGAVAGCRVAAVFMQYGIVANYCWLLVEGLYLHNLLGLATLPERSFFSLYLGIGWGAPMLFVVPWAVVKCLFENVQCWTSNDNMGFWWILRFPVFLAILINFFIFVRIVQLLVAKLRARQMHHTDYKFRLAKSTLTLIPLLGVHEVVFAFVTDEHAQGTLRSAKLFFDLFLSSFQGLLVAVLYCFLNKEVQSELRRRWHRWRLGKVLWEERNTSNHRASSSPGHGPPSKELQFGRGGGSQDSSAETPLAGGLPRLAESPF
human GcgR, sequence (P47871 26-477): as above
T2 sequence (P43220 24-463): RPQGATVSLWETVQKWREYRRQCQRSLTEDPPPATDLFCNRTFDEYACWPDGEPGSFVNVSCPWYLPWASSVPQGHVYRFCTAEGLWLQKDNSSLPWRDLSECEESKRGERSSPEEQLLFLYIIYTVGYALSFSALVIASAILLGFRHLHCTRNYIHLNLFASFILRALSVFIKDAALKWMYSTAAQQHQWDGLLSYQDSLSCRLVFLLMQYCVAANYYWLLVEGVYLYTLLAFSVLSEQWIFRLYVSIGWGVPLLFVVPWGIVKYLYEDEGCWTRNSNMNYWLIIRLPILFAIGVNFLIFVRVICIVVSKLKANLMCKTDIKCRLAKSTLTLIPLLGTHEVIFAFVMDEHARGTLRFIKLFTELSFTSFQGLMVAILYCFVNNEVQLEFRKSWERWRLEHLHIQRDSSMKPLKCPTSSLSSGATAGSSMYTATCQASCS

Compound	EC50 (hGIPR [1]) [nM]	EC50 (hGLP-1R [2]) [nM]	EC50 (human GcgR) [nM]	EC50 (hGIPR [3]) [nM]	EC50 (hGLP-1R [4]) [nM]	EC50 (hGcgR) [nM]	EC50 (hGIPR [3]; [5]) [nM]	EC50 (hGLP-1R [4]; [5]) [nM]	EC50 (hGcgR; [5]) [nM]	EC50 (hGIPR [3]; [6]) [nM]	EC50 (hGLP-1R [4]; [6]) [nM]	EC50 (hGcgR; [6]) [nM]	EC50 (hGIPR [1]; [7]) [nM]	EC50 (hGLP-1R [2]; [7]) [nM]	EC50 (human GcgR; [7]) [nM]
H-Y[Aib]QGT[αMePhe(2-F)]TSD[4Pal][αMeS]I[αMeL]LD[Orn]K([AEEA-AEEA-γGlu-C18 diacid])AQ[Aib][Orn]FIEYLIEGGPSSGAPEPSEG-NH2 [Example 492]	0.84	9.85	128	0.0119	0.146	1.35	–	–	–	–	–	–	–	–	–
H-Y[Aib]QGT[αMePhe(2-F)]TSD[4Pal][αMeS]I[αMeL]LD[Orn]K([AEEA-γGlu-C18 diacid])AQ[αMe4Pal]EFI[dE][αMeY]LIEGGPPSGEPPPEGE-NH2 [Example 1191]	0.931	82.3	243	–	–	–	0.00992	0.945	3.06	–	–	–	–	–	–
CC[C@H](C)[C@H](NC(=O)[C@H](Cc1ccccc1)NC(=O)[C@H](CCCN)NC(=O)C(C)(C)NC(=O)[C@H](CCC(N)=O)NC(=O)[C@H](C)NC(=O)[C@H](CCCCNC(=O)COCCOCCNC(=O)CC[C@H](NC(=O)CCCCCCCCCCCCCCCCC(=O)O)C(=O)O)NC(=O)[C@H](CCCN)NC(=O)[C@H](CC(=O)O)NC(=O)[C@H](CC(C)C)NC(=O)[C@](C)(CC(C)C)NC(=O)[C@@H](NC(=O)[C@](C)(CO)NC(=O)[C@H](Cc1ccc(O)cc1)NC(=O)[C@H](CC(=O)O)NC(=O)[C@H](CO)NC(=O)[C@@H](NC(=O)[C@](C)(Cc1ccccc1)NC(=O)[C@@H](NC(=O)CNC(=O)[C@H](CCC(N)=O)NC(=O)C(C)(C)NC(=O)[C@@H](N)Cc1ccc(O)cc1)[C@@H](C)O)[C@@H](C)O)[C@@H](C)CC)C(=O)N[C@H](CCC(=O)O)C(=O)N[C@@H](Cc1ccc(O)cc1)C(=O)N[C@@H](CC(C)C)C(=O)N[C@@H](CC(C)C)C(=O)N[C@@H](CCC(=O)O)C(=O)NCC(=O)NCC(=O)N1CCC[C@H]1C(=O)N[C@@H](CO)C(=O)N[C@@H](CO)C(=O)NCC(=O)N[C@@H](CCC(=O)O)C(=O)N1CCC[C@H]1C(=O)N1CCC[C@H]1C(=O)N1CCC[C@H]1C(=O)N[C@@H](CCC(=O)O)C(N)=O [Example 391] (H-Y[Aib]QGT[αMeF]TSDY[αMeS]I[αMeL]LD[Orn]K([AEEA-γGlu-C18 diacid])AQ[Aib][Orn]FI[dE]YLLEGGPSSGEPPPE-NH2)	11.5	34.4	808	0.0298	0.199	3.04	–	–	–	–	–	–	–	–	–
H-Y[Aib]QGTFTSDFS[Orn][αMeL]LDKK([AEEA-γGlu-C18 diacid])AQ[αMe4Pal]EFIEYLIE[Aib]GPSSGAPPPSGS-NH2 [Example 879]	20.1	591	329	–	–	–	–	–	–	0.169	4	2.16	–	–	–
H-Y[Aib]QGT[αMePhe(2-F)]TSD[4Pal][αMeS]I[αMeL]LD[Orn]K([γGlu-γGlu-C18 diacid])AQ[Aib][Orn]FI[dE][αMeY]LSEGGPSSGEPPPSGGEE-NH2 [Example 568]	13.2	116	477	0.125	0.986	6.13	–	–	–	–	–	–	–	–	–
H-Y[Aib]QGTFTSDFSK[αMeL]LDKK([AEEA-γGlu-C20 diacid])AQ[Aib]AFIEYLLAGGPSSGEPPPSGG-NH2 [Example 6]	46.6	446	1380	–	–	–	–	–	–	0.232	1.95	6.89	–	–	–
H-Y[Aib]QGTFTSD[4Pal]SQ[αMeL]LDKK([AEEA-γGlu-C18 diacid])AQ[αMe4Pal]AFIEYLIE[Aib]GPSSGAPPPSGT-NH2 [Example 834]	15.7	208	533	–	–	–	–	–	–	0.094	2.64	3.36	–	–	–
H-Y[Aib]QGTFTSD[4Pal]S[Orn][αMeL]LDKK([γGlu-γGlu-C18 diacid])AQ[αMe4Pal]AFIEYLIAGGPSSGEPPPSGTE-NH2 [Example 980]	15.4	290	239	–	–	–	–	–	–	0.18	2.26	2.41	–	–	–
H-Y[Aib]QGT[αMePhe(2-F)]TSD[4Pal][αMeS]I[αMeL]LD[Orn]K([AEEA-γGlu-γGlu-C18 diacid])AQ[Aib][Orn]FIEYLIEAGPSSGEPPPEEG-NH2 [Example 485]	0.869	11.8	298	0.0194	0.277	4.29	–	–	–	–	–	–	–	–	–
H-Y[Aib]QGT[αMePhe(2-F)]TSD[4Pal][αMeS]I[αMeL]LD[Orn]K([γGlu-γGlu-C18 diacid])AQ[Aib]QFI[dE][αMeY]LQEGGPSSGEPPPEGTGE-NH2 [Example 529]	1.39	24.5	398	0.0273	0.467	6.59	–	–	–	–	–	–	–	–	–
H-Y[Aib]QGT[αMePhe(2-F)]TSD[4Pal][αMeS]I[αMeL]LD[Orn]K([γGlu-γGlu-C18 diacid])AQ[Aib][Orn]FI[dE][αMeY]LQEGGPSSGEPPPEGEEE-NH2 [Example 588]	2.86	34.1	259	0.0777	0.613	4.72	–	–	–	–	–	–	–	–	–
Y[Aib]QGT[αMeF]TSD[4Pal][αMeS]I[αMeL]LD[Orn]K([AEEA-γGlu-C18 diacid])AQ[αMe4Pal]EFI[dE][αMeY]LIEGGPSSGEPPPSGE-NH2 [Example 1165]	1.36	87.7	358	–	–	–	–	–	–	0.0121	0.632	2.68	–	–	–
H-Y[Aib]QGTFTSDFS[Orn][αMeL]LD[Orn]K([γGlu-γGlu-C18 diacid])AQ[Aib]AFIE[αMe4Pal]LLEGGPSSGAPPPGGSEE-NH2 [Example 1050]	–	–	–	–	–	–	–	–	–	0.152	7.65	6.8	68.5	1240	2040
CC[C@H](C)[C@H](NC(=O)[C@H](Cc1ccccc1)NC(=O)[C@H](C)NC(=O)C(C)(C)NC(=O)[C@H](CCC(N)=O)NC(=O)[C@H](C)NC(=O)[C@H](CCCCNC(=O)COCCOCCNC(=O)CC[C@H](NC(=O)CCCCCCCCCCCCCCCCC(=O)O)C(=O)O)NC(=O)[C@H](CCCCN)NC(=O)[C@H](CC(=O)O)NC(=O)[C@H](CC(C)C)NC(=O)[C@H](CC(C)C)NC(=O)[C@@H](NC(=O)[C@](C)(CO)NC(=O)[C@H](Cc1cccnc1)NC(=O)[C@H](CC(=O)O)NC(=O)[C@H](CO)NC(=O)[C@@H](NC(=O)[C@](C)(Cc1ccccc1F)NC(=O)[C@@H](NC(=O)CNC(=O)[C@H](CCC(N)=O)NC(=O)C(C)(C)NC(=O)[C@@H](N)Cc1ccc(O)cc1)[C@@H](C)O)[C@@H](C)O)[C@@H](C)CC)C(=O)N[C@@H](CCC(=O)O)C(=O)N[C@@H](Cc1ccc(O)cc1)C(=O)N[C@@H](CC(C)C)C(=O)N[C@@H](CCC(=O)O)C(=O)N[C@@H](CCC(=O)O)C(=O)NCC(=O)NCC(=O)N1CCC[C@H]1C(=O)N[C@@H](CO)C(=O)N[C@@H](CO)C(=O)NCC(=O)N[C@@H](C)C(=O)N1CCC[C@H]1C(=O)N1CCC[C@H]1C(=O)N1CCC[C@H]1C(=O)N[C@@H](CCC(=O)O)C(N)=O [Example 465] (H-Y[Aib]QGT[αMePhe(2-F)]TSD[3Pal][αMeS]ILLDKK([AEEA-γGlu-C18 diacid])AQ[Aib]AFIEYLEEGGPSSGAPPPE-NH2)	44.6	56.3	233	0.148	0.575	1.5	–	–	–	–	–	–	–	–	–
H-Y[Aib]QGT[αMePhe(2-F)]TSD[4Pal]SILLDKK([γGlu-γGlu-C18 diacid])AQ[Aib]AFIEYLEEGGPSSGAPPPSGGGE-NH2 [Example 619]	6.78	94	819	0.0685	0.992	6.34	–	–	–	–	–	–	–	–	–
H-Y[Aib]QGTFTSD[4Pal]SQ[αMeL]LDKK([γGlu-γGlu-C18 diacid])AQ[αMe4Pal]AFIEYLIAGGPSSGAPPPEGS-NH2 [Example 969]	12.6	113	660	–	–	–	–	–	–	0.142	1.21	5.48	–	–	–
